In patent US20240423962A1, “FASCIN BINDING COMPOUNDS FOR SPINOGENESIS” (Spinogenix, Inc., priority 2018, published 2024):

How the values were obtained:
fascin = fascin (Homo sapiens, UniProt Q16658); conditions: cited from earlier work
[1] = tested on: primary mouse cortical neurons; experiment: Synaptic density of primary mouse cortical neurons (synaptophysin P38 puncta), FIG. 6; format: cell-based; conditions: luM, 24 hours of treatment
Procedure: The effect of the indicated compounds on the synaptic density of primary mouse cortical neurons was determined after 24 hours of treatment. FIG. 6. Primary mouse cortical neurons were treated on day 15 in vitro with fascin-inhibiting small molecules at luM, or with vehicle (DMSO). After 24 hours of treatment, neurons were fixed, immunolabeled for a protein component of synapses, the presynaptic vesicle protein, synaptophysin (P38), and then stained with the nuclear dye DAPI. Immunolabeled neurons were imaged on a Leica confocal microscope. The numbers of P38-immunopositive puncta were analyzed using FUI with the Squash plugin.

## O=C(Nc1nn(Cc2ccc(C(F)(F)F)cc2)c2ccccc12)c1ccco1 [compound 1, N-(1-(4-(trifluoromethyl)benzyl)-1H-indazol-3-yl)furan-2-carboxamide]
fascin; FIG. 5
  Fascin binding site: bind to fascin at binding site 2
fascin
  Effect of binding on actin-binding sites of fascin: opens actin-binding site 2 and closes actin-binding site 1
[1]
  Spine density compared to comparative compounds: increase spine density more than comparative compounds 1 and 7
[1]; vs vehicle (DMSO)
  Spine density compared to control: increase spine density compared to control
